Literature values as cited in patent US20170119663A1, “NOVEL GASTRO-RETENTIVE DOSAGE FORMS” (Grünenthal GmbH, priority 2010, published 2017).
Like-named read-outs stand apart in the source and are kept apart here.

## NCC1(CC(=O)O)CCCCC1 [gabapentin]
Dose in the range of 300-400 mg
  oral bioavailability: approximately 60%
Dose of 1600 mg
  oral bioavailability: 35%

## CC(C)C[C@H](CN)CC(=O)O [pregabalin]
Small intestine and ascending colon
  absorption window: around six
